Measured values reported in US11421025B2, “Treatment of IL-17A diseases” (OSAKA UNIVERSITY, priority 2013, dated 2022).
Ends that are not written are not given here.

Tests used:
Type in all cases: in vivo
[1] = system: human IL-17A epitope (BSA conjugate); experiment: Antibody titer by ELISA after human IL-17A epitope vaccines in BALB/c mouse; conditions: 6 weeks from the first administration, 3 times at 2-week intervals (FIG. 18, 20, 21)
Description: Production of plate: Mouse IL-17A1 epitope+BSA conjugate and mouse IL-17A2 epitope+BSA conjugate were dispensed to a 96 well plate at a concentration of 10 μg/ml, and stood at 4° C. overnight. Recombinant mouse IL-17A was dispensed to a 96 well plate at a concentration of 0.25 μg/ml and stood at 4° C. overnight.
The aforementioned plate was washed once with PBS (200 μl), and blocked with 5% skim milk in PBS for 2 hr. The primary antibody (mouse antiserum) was serially diluted with 5% skim milk in PBS, applied by 50 μl to a 96 well plate, and incubated at 4° C. overnight.
The aforementioned plate was washed 7 times with PBS-T (0.05% Tween) (200 μl), the secondary antibody (anti-mouse IgG Ab-HRP-labeled) was diluted 1/1000 (5% skim milk), added by 50 μl, and incubated at ambient temperature for 3 hr. The plate was washed 3 times with PBS-T (0.05% Tween) (200 μl), TMB solution (50 μl) was added, shaded and incubated at ambient temperature for 30 min. 0.5N H2SO4 (50 μl) was added to discontinue the reaction and absorbance was measured at 450 nm.
(§1) A vaccine containing a peptide consisting of the following human IL-17A1 epitope (KLH conjugated) corresponding to mouse IL-17A1 epitope (RPSDYLNR (SEQ ID NO: 5)) was produced, and intradermally administered to BALB/c mouse 3 times at 2-week intervals. The serum antibody titer was measured at 6 weeks from the first administration according to the method described in Example 1.
In addition, a vaccine containing a peptide consisting of two kinds of epitopes (human IL-17A2 epitope, human IL-17A3 epitope) of the following human IL-17A (KLH conjugated) was produced, and intradermally administered to BALB/c mouse 3 times at 2-week intervals. The serum antibody titer was measured at 6 weeks from the first administration according to the method described in Example 1.
Furthermore, a vaccine containing a peptide consisting of the following human IL-17A4, which is a partial sequence of human IL-17A1 epitope (KLH conjugated), was produced. […]

[2] = target: T1, mouse IL-17A1 epitope (BSA conjugate) (Mus musculus, UniProt Q62386); experiment: ELISA intersection reactivity of antiserum with mouse IL-17A1 epitope; conditions: serum of BALB/c mouse immunized with human epitope vaccine (FIG. 19A)
T1 construct: BSA-IL-17A1 (RPSDYLNR) conjugate (No5 BSA conjugate)
Description: The primary antibody (mouse antiserum) was diluted 10-fold, and then serially diluted by 5-fold and used. […]
as §1

[3] = system: DBA/1 mouse, arthritis caused by Type II collagen; experiment: Type II collagen arthritis model mouse, human IL-17A peptide vaccines; conditions: Experiment 8, KLH conjugated peptide vaccines (FIG. 22B)
Description: A vaccine containing a peptide consisting of human IL-17A1 epitope, human IL-17A2 epitope or human IL-17A4 epitope was administered to femoral muscle of each of the following 6-week-old male mice (KLH conjugated) 3 times at 2-week intervals (120 μg/60 μl×1 site/administration). Type II collagen and CFA (complete Freund's adjuvant) were administered at 28 days from the first vaccine administration, and Type II collagen and IFA (incomplete Freund's adjuvant) were administered at 42 days from the first vaccine administration, to induce arthritis. Thereafter, the level of arthritis was observed 3 times per week and scored.
H17 (human IL-17A1 epitope) group: 3 mice
AF4 (human IL-17A4 epitope) group: 3 mice
AF5 (human IL-17A2 epitope) group: 3 mice

Substance: human IL-17A1 epitope: vaccine containing a peptide consisting of human IL-17A1 epitope RSSDYYNR (SEQ ID NO: 1), KLH conjugated (also: KLH conjugated; listed as Homo sapiens)
- serum antibody titer [1]: increased
- intersection reactivity of serum with mouse IL-17A1 epitope [2]: showed intersection reactivity
- clinical score of arthritis [3]: suppressive effect on the onset and progression of arthritis

Substance: human IL-17A2 epitope: vaccine containing a peptide consisting of human IL-17A2 epitope ADGNVDYHMNSVPIQQE (SEQ ID NO: 8), KLH conjugated (also: KLH conjugated; listed as Homo sapiens)
- serum antibody titer [1]: increased
- clinical score of arthritis [3]: suppressive effect on the onset and progression of arthritis

Substance: human IL-17A4 epitope: vaccine containing a peptide consisting of human IL-17A4 epitope SDYYN (SEQ ID NO: 11), KLH conjugated (also: KLH conjugated; listed as Homo sapiens)
- serum antibody titer [1]: increased
- clinical score of arthritis [3]: suppressive effect on the onset and progression of arthritis
